Data published in patent publication US8632914B2, “Triazolium and imidazolium salts and uses thereof” (University Health Network, priority 2008, dated 2014).

How the values were obtained:
P. berghei parasites = experiment: In vivo evaluation: parasitemia in mice infected with P. berghei; parameters: species or system P. berghei in female Balb/C mice
Procedure: (§1) Groups of 5 female Balb/C mice were infected with 10^6 P. berghei parasites i.p. and the parasitemia was estimated daily by examining a Giemsa-stained blood film. Once parasites were observed mice were infused once daily with saline alone (control groups) or with 18 ug/day of QT72, 18 ug/day of QT69, 0.24 ug/day of QT98, 60 ug/day of QT109, 9 ug/day of QT119, 7.5 ug/day of QT124 or 450 ug/day of chloroquine (CQ) for three days, as indicated by the arrows in FIG. 1. Average parasitemias are shown in FIG. 1 with standard error of the mean for each experimental group indicated by bars. The separate graphs in FIG. 1 indicate the results of two separate experiments.

P. falciparum = experiment: Anti-Plasmodium activity: viability of P. falciparum cultures (pLDH enzyme assay); format: cell-based; conditions: strain line ItG, 72 hr incubation, pLDH assay, mean of four determinations ± standard error, read-out: IC50 (μM) P. falciparum
Procedure: P. falciparum cultures were grown in O+ blood obtained by venipuncture of volunteers. Cultures of the laboratory line ItG were maintained by the method of Trager and Jensen (Trager, W.; Jensen, J. Science 1976, 193, 673) using RPM, 1640 supplemented with 10% human serum (a kind gift obtained under ethical consent from the Chemo Day Care department of the Princess Margaret Hospital, Toronto, Canada) and 50 μM hypoxanthine (RPMI-A). The effects of the test compounds on the viability of P. falciparum cultures were determined using a Lactate Dehydrogenase (LDH) enzyme assay specific to the enzyme found in Plasmodium falciparum (pLDH) (Prudhomme, J. G.; Sherman, I. W. J Immunol Methods 1999, 229(1-2), 169; Makler, M. T.; Ries, J. M.; Williams, J. A.; Bancroft, J. E.; Piper, R. C.; Gibbins, B. L.; Hinrichs, D. J. Am J Trop Med Hyg 1993, 48(6), 739). Briefly, compounds to be tested were dissolved in DMSO afford a solution having a concentration of 10 mg/mL. Two-fold serial dilutions were then produced in 50 μL of RPMI-A in a 96 well plate and then 50 μL of parasite culture (2% hematocrit, 2% parasitemia) were added to each well and the plates were then incubated at 37° C. in 95% N2, 3% CO2, and 2% O2 for 72 hr. The contents of the wells were then re-suspended using a multi-channel pipettor and a 15 μL sample was removed from each well and was added to 100 μL of pLDH enzyme assay mixture (Prudhomme, J. G.; Sherman, I. W. J Immunol Methods 1999, 229(1-2), 169). After 1 hr the absorbance of the wells at 650 nm was determined using a ThermoMax microplate reader (Molecular Devices, Sunnyvale, Calif.). The IC50 values of individual compounds were determined using a non-linear regression analysis of the data^19 using the computer program SigmaPlot (Jandel Scientific) and are reported in Table 1. The IC50 values represent the mean±standard error calculated from four independent determinations. To verify if the poor viability of the cultures was related to inhibited merozoite invasion, samples were taken from treated wells and the presence of extracellular merozoites was confirmed by microscopy.

CHO cells = experiment: Viability of CHO cells (MTT); format: cell-based; conditions: Cricetulus griseus; CHO cells; 48 hrs; MTT; mean of four determinations ± standard error; read-out: IC50 (μM) CHO cells
Procedure: CHO cells (ATCC, Manassas, Va.) were grown in RPMI-1640 supplemented with 10% fetal calf serum (Sigma, St. Louis, Mo.), 25 mM HEPES and gentimicin (RPMI-10). Cells were seeded in 96 well plates and grown to 50% confluency in 100 μL of RPMI-10 per well prior to the addition of either DMSO alone, or a 10 mg/mL solution of a test compound of the disclosure in DMSO. Compound gradients were prepared by adding 90 μL of RPMI-10 mixed with 10 μL of compound solution to the first well in the series, mixing, transferring 100 μL to the next well, and repeating until the next-to-last well was reached. After 48 hrs, the viability of the cells was determined by discarding the media in the wells and adding 100 μL of 10 mg/mL of 3-[4,5-dimethylthiazol-2-yl]-2,5-diphenyltetrazolium bromide (MTT, Sigma, St. Louis, Mo.) in RPMI-10, incubating the plates for a further hour, and then removing the media and adding 100 μL of DMSO and reading the absorbance at 650 nm (Campling, B. G.; Pym, J.; Galbraith, P. R.; Cole, S. P. Leuk Res 1988, 12(10), 823). The IC50 values of individual compounds were determined using a non-linear regression analysis of the dose-response curve using the computer program SigmaPlot (Jandel Scientific) and are reported in Table 1.

[1] = tested on: P. falciparum ItG cultures; experiment: Effect on synchronized ItG P. falciparum cultures (Giemsa stained blood films); format: cell-based; conditions: 20 uM; cultures synchronized at mature stage; 24 hrs incubation
Procedure: The culture was allowed to incubate for 24 hrs before samples were withdrawn and used to produce Giemsa stained blood films.

[2] = parameters: species or system mice; conditions: mouse, in vivo
Procedure: as §1

Row | IC50 (P. falciparum) [µM] | Compound | parasitemia vs saline control (P. berghei parasites; 18 ug/day infused once daily for three days, day 6 (P<0.10), day 7 (P<0.01), day 8 (P<0.01)) | IC50 (CHO cells) [µM] | parasite forms in Giemsa stained blood films [1] | adverse effects on the health of the mice [2] | parasitemia vs saline control (P. berghei parasites; 450 ug/day infused once daily for three days, second experiment, all days following day 6 (P<0.02)) | parasitemia vs saline control (P. berghei parasites; 0.24 ug/day infused once daily for three days, day 7 (P<0.05)) | parasitemia vs saline control (P. berghei parasites; 9 ug/day infused once daily for three days, second experiment, day 14 (P<0.10), day 15 (P<0.03))
1 | 0.9 ± 0.2 | c1ccc(Cn2cc[n+](Cc3ccc4ccccc4c3)c2)cc1 [QT69, 1-Benzyl-3-(naphthalen-2-yl-methyl)imidazolium bromide] | significantly lower | 108 ± 6 | parasite forms were seen associated with the outside of the red cells | – | – | – | –
2 | 0.007 ± 0.003 | C[n+]1ccn(CCCCCCCCCCCCCn2cc[n+](C)c2)c1 [QT109, 1,13-Bis-(3-methylimidazolium-1-yl)tridecane diiodide] | – | 51 ± 11 | – | no adverse effects on the health of the mice were observed | – | – | –
3 | – | CCN(CC)CCCC(C)Nc1ccnc2cc(Cl)ccc12 (stereo not drawn) [chloroquine, reference compound] | – | – | – | – | significantly lower | – | –
4 | 0.009 ± 0.001 | C[n+]1ccn(-c2ccc(-c3ccc(-n4cc[n+](C)c4)cc3)cc2)c1 [QT98, 4,4′-Bis-(3-methyl-1H-imidazolium-1-yl)biphenyl diiodide] | – | 9 ± 2 | – | – | – | significantly lower | –
5 | 0.00016 ± 5e-05 | C[n+]1cnn(CCCCCCCCCCCCn2c[n+](C)cn2)c1 [QT124, 1,12-Bis(4-methyl-1H-1,2,4-triazolium-1-yl)dodecane diiodide] | – | 52 ± 9 | – | no adverse effects on the health of the mice were observed | – | – | –
6 | 0.0008 ± 0.0001 | CCC[n+]1ccn(CCCCCCCCCCCCn2cc[n+](CCC)c2)c1 [QT119, 1,12-Bis(3-propylimidazolium-1-yl)dodecane diiodide] | – | 78 ± 14 | – | no adverse effects on the health of the mice were observed | – | – | significantly lower
